# Reference: PubChem BioAssay AID328 (DTP/NCI, 2004)
# Where “and” joins values, the source holds several entries; their conditions need not be identical. Equal values may be shown once. Inconclusive results and toxic doses are left out.
# Tested on: BDF1 mice, P388 leukemia ip, median survival T/C
# Assay: NCI In Vivo Anticancer Drug Screen. Data for tumor model P388 Leukemia (intraperitoneal) in B6D2F1 (BDF1) mice
# Details: endpoint: median survival time, higher = longer survival
# In short: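 Antitumour effect was judged in vivo: survival in drug-treated mice, normalised to that of vehicle-dosed controls, gives the reported T/C.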
# [1] = dose: 50.0 mg/kg/injection, schedule: Q01DX009 (ip), vehicle: other
# [2] = dose: 50.0 mg/kg/injection, schedule: Q01DX009 (ip), vehicle: saline
# [3] = dose: 100.0 mg/kg/injection, schedule: Q01DX009 (ip), vehicle: saline
# [4] = dose: 200.0 mg/kg/injection, schedule: Q01DX009 (ip), vehicle: saline
# [5] = dose: 50.0 mg/kg/injection, schedule: Q01DX009 (ip), vehicle: Klucel (hydroxypropylcellulose) (HPC)
# [6] = dose: 50.0 mg/kg/injection, schedule: Q04DX003 (ip), vehicle: saline
# [7] = dose: 100.0 mg/kg/injection, schedule: Q01DX009 (ip), vehicle: Klucel (hydroxypropylcellulose) (HPC)
# [8] = dose: 100.0 mg/kg/injection, schedule: Q04DX003 (ip), vehicle: saline
# [9] = dose: 200.0 mg/kg/injection, schedule: Q04DX003 (ip), vehicle: saline
# [10] = dose: 400.0 mg/kg/injection, schedule: Q04DX003 (ip), vehicle: saline
# [11] = dose: 400.0 mg/kg/injection, schedule: Q01DX009 (ip), vehicle: saline
structure (smiles),measurement,setting,value
COc1ccc(Cc2ccccc2)c(O)c1,T/C,[1],108 % of control
same,T/C,"dose: 100.0 mg/kg/injection, schedule: Q01DX009 (ip), vehicle: other",104 % of control
same,T/C,"dose: 100.0 mg/kg/injection, schedule: Q04DX003 (ip), vehicle: other",109 % of control
same,T/C,"dose: 200.0 mg/kg/injection, schedule: Q01DX009 (ip), vehicle: other",116 % of control
same,T/C,"dose: 200.0 mg/kg/injection, schedule: Q04DX003 (ip), vehicle: other",104 % of control
same,T/C,"dose: 400.0 mg/kg/injection, schedule: Q04DX003 (ip), vehicle: other",109 % of control
O=C1c2ccccc2C(=O)c2c(NCCN3CCCCC3)ccc(NCCN3CCCCC3)c21,T/C,[1],115 % of control
CN(C)P(=O)(N(C)C)N(C)CC[N+](C)(C)C,T/C,[2],103 % of control
same,T/C,[3],101 % of control
same,T/C,[4],100 % of control
O=C(CSCSCC(=O)Nc1ccc(C2=NCCN2)cc1)Nc1ccc(C2=NCCN2)cc1,T/C,"dose: 10.0 mg/kg/injection, schedule: Q01DX009 (ip), vehicle: Klucel (hydroxypropylcellulose) (HPC)",91 % of control
same,T/C,"dose: 12.5 mg/kg/injection, schedule: Q04DX003 (ip), vehicle: saline",100 % of control
same,T/C,"dose: 25.0 mg/kg/injection, schedule: Q01DX009 (ip), vehicle: Klucel (hydroxypropylcellulose) (HPC)",100 % of control and 115 % of control
same,T/C,[5],165 % of control
same,T/C,[6],104 % of control and 109 % of control
same,T/C,"dose: 75.0 mg/kg/injection, schedule: Q04DX003 (ip), vehicle: saline",104 % of control
same,T/C,[7],90 % of control
same,T/C,[8],114 % of control
same,T/C,"dose: 135.0 mg/kg/injection, schedule: Q04DX003 (ip), vehicle: saline",157 % of control
same,T/C,[9],157 % of control
O=C(/C=C/c1c(Cl)cccc1Cl)c1ccccc1,T/C,[5],97 % of control
same,T/C,[7],105 % of control
same,T/C,"dose: 200.0 mg/kg/injection, schedule: Q01DX009 (ip), vehicle: Klucel (hydroxypropylcellulose) (HPC)",97 % of control
CC1(C)OC(=O)CC(=O)O1,T/C,[3],105 % of control
same,T/C,[8],91 % of control
same,T/C,[4],100 % of control
same,T/C,[9],91 % of control
same,T/C,[10],100 % of control
O=C1CCCN1,T/C,"dose: 50.0 mg/kg/injection, schedule: Q01DX001 (ip), vehicle: saline",100 % of control
same,T/C,[6],95 % of control
same,T/C,"dose: 100.0 mg/kg/injection, schedule: Q01DX001 (ip), vehicle: saline",118 % of control
same,T/C,[3],105 % of control
same,T/C,[8],87 % of control
same,T/C,"dose: 200.0 mg/kg/injection, schedule: Q01DX001 (ip), vehicle: saline",100 % of control
same,T/C,[4],110 % of control
same,T/C,[11],110 % of control
c1c[nH]cn1,T/C,[3],90 % of control
same,T/C,[8],95 % of control
same,T/C,[4],100 % of control
same,T/C,[9],104 % of control
same,T/C,[11],118 % of control
same,T/C,[10],95 % of control
O=C(c1ccccc1)C1C(c2ccccc2)C2(CCCCC2=O)C(c2ccccc2)CC1(O)c1ccccc1 (stereo not drawn),T/C,"dose: 25.0 mg/kg/injection, schedule: Q01DX001 (ip), vehicle: Klucel (hydroxypropylcellulose) (HPC)",88 % of control
FC(F)(F)COP1SCCS1,T/C,"dose: 25.0 mg/kg/injection, schedule: Q01DX005 (ip), vehicle: saline with Tween-80",97 % of control
same,T/C,"dose: 50.0 mg/kg/injection, schedule: Q01DX005 (ip), vehicle: saline with Tween-80",97 % of control
NNc1cccc(C(F)(F)F)c1,T/C,"dose: 12.5 mg/kg/injection, schedule: Q01DX009 (ip), vehicle: saline",106 % of control
same,T/C,"dose: 25.0 mg/kg/injection, schedule: Q01DX009 (ip), vehicle: saline",104 % of control
same,T/C,[2],117 % of control
